Results on twelve compounds are retold here after patent US20090312277A1, “Compositions And Methods For Reversing Or Preventing Resistance Of A Cancer Cell To A Cytotoxic Agent” (priority 2004, published 2009).

Peptide text beside a SMILES is read from it. * marks the point of attachment. Cbz = O=C(OCc1ccccc1)*

One data set deals with T1, Purified cathepsin L (Homo sapiens, UniProt P07711).
T1 construct: purchased Biomol, Plymouth Meeting, Pa
In words: Cathepsin L activity, fluorogenic substrate (CV-Cathepsin L Detection Kit). Type of data set: biochemical. Conditions: inhibitor 10 μM, 200 ng cathepsin L; positive control 4e+5 AU, negative control 0.75e+5 AU. The method, then: Cathepsin L activity was measured using a commercially available kit according to the manufacturer's procedure (CV-Cathepsin L Detection Kit; Biomol, Plymouth Meeting, Pa.). Purified cathepsin L (Biomol, Plymouth Meeting, Pa.) (200 ng) was incubated with each inhibitor (10 μM) in a 96 well plate for 15 min at room temperature in 100 μl of reaction buffer (100 mM sodium acetate pH 5, 1 mM EDTA (ethylenediaminetetraacetic acid), and 4 mM dithiothreitol). The protease inhibitors tested were: lactacystin and inhibitors of cathepsin L, B, S, and K. 100 μl of a fluorogenic substrate (CV-Cathepsin L Detection Kit; Biomol, Plymouth Meeting, Pa.) were added and incubated for an additional 30 min at room temperature. Fluorescence was measured in a plate reader (Victor Multilabel Counter, Perkin Elmer) at 380 nm excitation and […] emission wavelengths.

In data set [1] the test system is SKN-SH doxorubicin-resistant cells. Briefly: Viable cell count of SKN-SH doxorubicin-resistant cells with other chemotherapeutic agents. The conditions noted are these: Homo sapiens, SK-N-SH, 72 h; for viability at 100 µM: read-out: number of viable cells, chemotherapeutic agent alone at 10^−4 M; for viability at 10 µM: read-out: number of viable cells, chemotherapeutic agent alone at 10^−5M; for viability at 1 µM: read-out: number of viable cells, chemotherapeutic agent alone at 10^−6 M; for viability at 0.1 µM: read-out: number of viable cells, chemotherapeutic agent alone at 10^−7M; for viability at 0.01 µM: read-out: number of viable cells, chemotherapeutic agent alone at 10^−8M. The method, then: SHN-SH cells were prepared in the manner described above. […] Viable cells were counted after 72 hours of incubation with the melphalan, etoposide, mitoxantrone, cyclophosphamide, and tamoxifen.

Data set [2] concerns Doxorubicin resistant human neuroblastoma cells (SKN-SH/R). In words: Tumor growth of SKN-SH/R cells injected into nude mice. It counts as in vivo. The procedure: Doxorubicin resistant human neuroblastoma cells (SKN-SH/R) cells grown into 75 cm^2 flasks were harvested by trypsinization and centrifuged to remove trypsin. The pellet was then reconstituted in culture medium at 10^7 cell/ml. On day one, 100 μl (10^6 cells) were injected to the right flank of nude mice (5 per group) and after the tumor became palpable at day 11, mice were assigned to four groups: 1) controls (treated with the vehicle DMSO), 2) Dox. 1.5 mg/kg (treated with doxorubicin alone 1.5 mg/Kg), 3) iCL 30 mg/Kg (treated with cathepsin L inhibitor alone at 30 mg/Kg), and 4) Dox 1.5 mg/Kg+iCL 30 mg/Kg (treated with the combination of doxorubicin 1.5 mg/Kg and cathepsin L inhibitor 30 mg/Kg). Intraperetoneal injections were given on day 11, day 14, and day 17.

Another data set has as its system SKN-SH/R cells. In words: MTT cytotoxicity assay, doxorubicin-resistant neuroblastoma cells. It counts as cell-based. The conditions noted are these: Homo sapiens, SK-N-SH, 96 h, read-out: IC50 (concentration at which 50% of cells remained viable) of the cytotoxic agent alone, SKN-SH/R cells, agent alone (control cells), 96 hours, MTT. The procedure:
(§1) Human neuroblastoma SKN-SH cells (ATCC Cat. No. HTB-11) were cultured in Dulbecco's Modified Eagles Medium (DMEM; Gibco, Grand Island, N.Y.) supplemented with 10% fetal bovine serum (FBS; Sigma-Aldrich, St. Louis, Mo.) at 37° C. in a 95% Air/5% CO2 atmosphere. Resistant cells to doxorubicin (SKN-SH/R) were selected by stepwise exposure to drug concentrations ranging from 10^−9 M through 10^−6 M over a time period of three months. The resulting cell line was subjected to treatment with the doxorubicin alone or in combination with: proteosome inhibitor (Lactacystin), cathepsin B inhibitor (L-3-trans-(Propylcarbamoyl)oxirane-2-carbonyl]-L-isoleucyl-L praline), cathespin L inhibitor (Z-Phe-Tyr(t-Bu)-diazomethylketone), cathespin K inhibitor (1,3-Bis(N-CBZ-Leu-NH)-2-propanonel,3 -Di(N-carbonbenzoyloxy-L-leucyl)amino acetone), or cathespin S inhibitor (Z-Phe-Leu-COCHO.H2O), (all available from Calbiochem-Novabiochem, San Diego) at 10 μM each to determine whether they affect cell response to doxorubicin.
(§2) Cytotoxic activity of doxorubicin and cysteine protease inhibitors were quantitatively determined by a calorimetric assay utilizing 3-(4,5-dimethyl-2-thiazolyl) 2,5-diphenyl tetrazolium bromide (MTT; Sigma-Aldrich, St. Louis, Mo.). […] The optical density of this solution was measured at 570 nm and the percentage of viable cells estimated by comparison with untreated control cells. […]
For orientation: Tetrazolium dyes change colour on reduction, which living cells bring about.

The next data set relates to SKN-SH wild type cells. In words: MTT cytotoxicity assay, SKN-SH wild type cells. It counts as cell-based. The conditions noted are these: Homo sapiens, SK-N-SH, 96 h, read-out: IC50 of the cytotoxic agent alone. The procedure: as §1, §2
In data set [3] the test system is drug resistant osteosarcoma cells (Saos2-R). In words: Cell count of drug resistant osteosarcoma cells after siRNA or inhibitor and doxorubicin. It counts as cell-based. From the text: (§3) The human cathepsin L siRNA was designed in our laboratory by studying a cDNA sequence of the human cathepsin L gene (SEQ ID NO: 2). We selected a segment defined by nucleotide numbers 91-111, sent that sequence to a contract laboratory (Dharmacon, Lafayette, Colo.), which synthesized an siRNA molecule based on the aforementioned segment. The segment of the human cathepsin L cDNA we used was: […] (91-111) (SEQ ID NO: 2). On the day before transfection, 3×10^5 drug resistant osteosarcoma cells (Saos2-R) were seeded in 6-well plates and grown in 2.5 ml of DMEM supplemented with 10% FBS. After 24 hours in culture, 25 μl of 20 μM stock solution of siRNA duplexes were transfected into cells with GeneSilencer™ SiRNA Transfection Reagent Kit (Gene Therapy Systems, Inc., San Diego, Calif.). Briefly, adherent cells were transfected in 6 well plates. Cells were about 70% confluent. In one tube, 5 μl of GeneSilencer™ was mixed with 25 μl of serum free medium. In a second tube, 25 μl of siRNA diluent was mixed with […] of serum free medium and 20 μl of siRNA (100 nM). After incubation of tubes 1 and 2, at room temperature for 5 min, they were mixed together into tube 3 and incubated for an additional 5 min. The content of tube 3 was added to the cells in the 6 well plates and incubated for 2 days before the addition of the drug. After 48 hours of incubation, doxorubicin (10^−5 M) was added and maintained in culture for an additional 48 hours before analysis. The cells were counted and protein lysates were used to detect cathepsin L expression by Western blot as described above.

For the next data set, the system named is cathepsin L. In words: Cathepsin L expression by Western blot in siRNA-transfected Saos2-R cells. Type of data set: cell-based, human.
Description: as §3, with “The content of tube 3 was added to the cells in the 6 well plates and incubated for 2 days before the addition of the drug. After 48 hours of incubation, doxorubicin (10^−5 M) was added and maintained in culture for an additional 48 hours before analysis.” left out
A general note: Immunoblotting shows a protein as a band on a membrane.

The mark [4] stands for this setting: cathepsin inhibitor 30 mg/Kg + doxorubicin 1.5 mg/Kg.

T1 sequence (P07711 114-333, species assumed): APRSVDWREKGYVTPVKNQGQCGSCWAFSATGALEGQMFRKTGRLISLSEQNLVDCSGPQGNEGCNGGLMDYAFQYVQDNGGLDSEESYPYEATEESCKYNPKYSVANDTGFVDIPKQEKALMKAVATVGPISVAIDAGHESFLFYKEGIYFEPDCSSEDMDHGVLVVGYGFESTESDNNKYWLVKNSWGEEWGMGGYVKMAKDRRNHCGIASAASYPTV

With `CCCNC(=O)[C@H]1O[C@@H]1C(=O)N[C@H](C(=O)N1CCC[C@H]1C(=O)O)[C@@H](C)CC` (relative stereo) [cathepsin B inhibitor], the “cathepsin L activity (arbitrary units) in presence of inhibitor” value (“cathepsin L activity … of inhibitor” for short) on Purified cathepsin L is reported as 3.5e+5 AU.

Turning to `CC(C)C[C@H](NC(=O)OCc1ccccc1)C(=O)NCC(=O)CNC(=O)[C@H](CC(C)C)NC(=O)OCc1ccccc1` [cathepsin K inhibitor, 1,3-Bis(N-CBZ-Leu-NH)-2-propanonel,3 -Di(N-carbonbenzoyloxy-L-leucyl)amino acetone], the “cathepsin L activity … of inhibitor” value on Purified cathepsin L is recorded as 1e+5 AU.

Take `CC(C)CC(NC(=O)C(Cc1ccccc1)NC(=O)OCc1ccccc1)C(=O)C=O.O` (stereo not drawn) [cathepsin S inhibitor, Z-Phe-Leu-COCHO.H2O]: at Purified cathepsin L, the “cathepsin L activity … of inhibitor” value was 3e+5 AU.

As to `O=P1(N(CCCl)CCCl)NCCCO1` (centres unmarked) [cyclophosphamide], in data set [1], the viability at 100 µM was about 70%, the viability at 10 µM is about 70%, the viability at 1 µM was about 80% and the viability at 0.1 µM was about 95%.

In the case of `COc1cc([C@@H]2c3cc4c(cc3[C@@H](O[C@@H]3O[C@@H]5CO[C@@H](C)O[C@H]5[C@H](O)[C@H]3O)[C@H]3COC(=O)[C@H]23)OCO4)cc(OC)c1O` [etoposide], in data set [1], the viability at 100 µM was about 10%, the viability at 10 µM is about 70%, the viability at 1 µM was about 90% and the viability at 0.1 µM is about 95%.

Consider `O=C[C@H](Cc1ccc(O)cc1)NC(=O)[C@H](Cc1ccccc1)NC(=O)OCc1ccccc1` [iCL, Z-Phe-Tyr-aldehyde] (Cbz-Phe-Tyr-aldehyde), for which, in data set [2] (setting [4]), the “tumor volume reduction at day 27 greater than doxorubicin alone, co-administered with doxorubicin” value is “about 94%” and the “tumor volume reduction at day 27 greater than the control, co-administered with doxorubicin” value is on record as “about 95%”. Further, in data set [2] (cathepsin inhibitor alone 30 mg/Kg), the “tumor volume reduction at day 27 greater than the control, inhibitor alone” value is “about 60%”. In data set [2] (cathepsin inhibitor alone 30 mg/Kg vs doxorubicin 1.5 mg/Kg), the “tumor volume reduction at day 27 greater than doxorubicin, inhibitor alone” value is given as “about 50%”. Besides, in data set [2] (nude mice, i.p. on day 11, 14, 17, Dox 1.5 mg/Kg+iCL 30 mg/Kg), the “average tumor volume on day 27, combination with doxorubicin” value was “approximately 100 mm^3”. Further, in data set [2] (nude mice, i.p. on day 11, 14, 17, doxorubicin alone 1.5 mg/Kg or iCL alone 30 mg/Kg), the “average tumor volume on day 27, single agent” value is reported as “approximately 800 mm^3”.

Consider `CC(=O)N[C@@H](CSC(=O)[C@]1([C@@H](O)C(C)C)NC(=O)[C@H](C)[C@@H]1O)C(=O)O` [lactacystin, Lactacystin], for which the “cathepsin L activity … of inhibitor” value on Purified cathepsin L was determined as 4.25e+5 AU.

Take `N[C@@H](Cc1ccc(N(CCCl)CCCl)cc1)C(=O)O` [melphalan]: in data set [1], the viability at 1 µM was about 0%, the viability at 0.1 µM was about 30% and the viability at 0.01 µM was about 60%.

Consider `O=C1c2c(O)ccc(O)c2C(=O)c2c(NCCNCCO)ccc(NCCNCCO)c21` [mitoxantrone], for which, in data set [1], the viability at 1 µM is about 5%, the viability at 0.1 µM is about 10% and the viability at 0.01 µM was about 40%.

Regarding `CC/C(=C(\c1ccccc1)c1ccc(OCCN(C)C)cc1)c1ccccc1` [tamoxifen], in data set [1], the viability at 10 µM is about 0%, the viability at 1 µM is about 60%, the viability at 0.1 µM was about 60% and the viability at 0.01 µM is about 75%.

As to `CC[C@]1(O)C[C@@H]2CN(CCc3c([nH]c4ccccc34)[C@@](C(=O)OC)(c3cc4c(cc3OC)N(C)[C@H]3[C@@](O)(C(=O)OC)[C@H](OC(C)=O)[C@]5(CC)C=CCN6CC[C@]43[C@@H]65)C2)C1` [vinblastine], the figures for the IC50 with SKN-SH/R cells and with SKN-SH wild type cells were about 5.62 µM and about 0.1 µM, respectively.

Consider “siRNA: human cathepsin L siRNA based on nucleotides 91-111 of the cathepsin L cDNA (SEQ ID NO: 2), synthesized by Dharmacon (UUCACCUUCCGCUACGUGUUG; listed as RNA, chemistry not given here; listed as Homo sapiens)”, for which the “inhibition of cell proliferation, combination of siRNA and doxorubicin” value in data set [3] (doxorubicin 10^−5 M) is reported as about 90%. In data set [3] (doxorubicin 10^−5 M for 48 hours, untreated 1.6e+6 AU), the “cell number, in combination with doxorubicin” value worked out at 1.5e+5 AU. Further, the “cell number, siRNA transfection alone” value in data set [3] (untreated 1.6e+6 AU) was found to be 8.0e+5 AU. Further, the “cathepsin L expression (Western blot), siRNA alone” value in the data set on cathepsin L (Saos2-R cells transfected with siRNA) is on record as “completely diminished”. In addition, the “cathepsin L expression (Western blot), siRNA and doxorubicin” value in the data set on cathepsin L (Saos2-R cells transfected with siRNA and treated with doxorubicin 10^−5 M) is recorded as “completely diminished”.
